Assay results: patent US20230312528A1, “2-OXO-IMIDAZOLIDINE-4-CARBOXAMIDES AS NAV1.8 INHIBITORS” (Merck Sharp & Dohme LLC, priority 2020, published 2023)

Biological target: human NaV1.8 (Homo sapiens (Human), UniProt Q9Y5Y9)
Test: Nav1.8 Qube automated patch-clamp assay
Assay type: cell-based
Conditions: human NaV1.8 stably expressed in HEK 293 cells; automated 384-well patch-clamp; resting or inactivated state not specified
In short: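 Human NaV1.8 in HEK293 cells, automated whole-cell patch clamp at room temperature: 1 Hz train of ten 20 ms pulses to 10 mV from −90 mV, repolarization to −67 mV. First- and tenth-pulse peak currents gave resting and inactivated-state IC50 values via Hill fits.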

human NaV1.8, sequence (Q9Y5Y9 whole entry): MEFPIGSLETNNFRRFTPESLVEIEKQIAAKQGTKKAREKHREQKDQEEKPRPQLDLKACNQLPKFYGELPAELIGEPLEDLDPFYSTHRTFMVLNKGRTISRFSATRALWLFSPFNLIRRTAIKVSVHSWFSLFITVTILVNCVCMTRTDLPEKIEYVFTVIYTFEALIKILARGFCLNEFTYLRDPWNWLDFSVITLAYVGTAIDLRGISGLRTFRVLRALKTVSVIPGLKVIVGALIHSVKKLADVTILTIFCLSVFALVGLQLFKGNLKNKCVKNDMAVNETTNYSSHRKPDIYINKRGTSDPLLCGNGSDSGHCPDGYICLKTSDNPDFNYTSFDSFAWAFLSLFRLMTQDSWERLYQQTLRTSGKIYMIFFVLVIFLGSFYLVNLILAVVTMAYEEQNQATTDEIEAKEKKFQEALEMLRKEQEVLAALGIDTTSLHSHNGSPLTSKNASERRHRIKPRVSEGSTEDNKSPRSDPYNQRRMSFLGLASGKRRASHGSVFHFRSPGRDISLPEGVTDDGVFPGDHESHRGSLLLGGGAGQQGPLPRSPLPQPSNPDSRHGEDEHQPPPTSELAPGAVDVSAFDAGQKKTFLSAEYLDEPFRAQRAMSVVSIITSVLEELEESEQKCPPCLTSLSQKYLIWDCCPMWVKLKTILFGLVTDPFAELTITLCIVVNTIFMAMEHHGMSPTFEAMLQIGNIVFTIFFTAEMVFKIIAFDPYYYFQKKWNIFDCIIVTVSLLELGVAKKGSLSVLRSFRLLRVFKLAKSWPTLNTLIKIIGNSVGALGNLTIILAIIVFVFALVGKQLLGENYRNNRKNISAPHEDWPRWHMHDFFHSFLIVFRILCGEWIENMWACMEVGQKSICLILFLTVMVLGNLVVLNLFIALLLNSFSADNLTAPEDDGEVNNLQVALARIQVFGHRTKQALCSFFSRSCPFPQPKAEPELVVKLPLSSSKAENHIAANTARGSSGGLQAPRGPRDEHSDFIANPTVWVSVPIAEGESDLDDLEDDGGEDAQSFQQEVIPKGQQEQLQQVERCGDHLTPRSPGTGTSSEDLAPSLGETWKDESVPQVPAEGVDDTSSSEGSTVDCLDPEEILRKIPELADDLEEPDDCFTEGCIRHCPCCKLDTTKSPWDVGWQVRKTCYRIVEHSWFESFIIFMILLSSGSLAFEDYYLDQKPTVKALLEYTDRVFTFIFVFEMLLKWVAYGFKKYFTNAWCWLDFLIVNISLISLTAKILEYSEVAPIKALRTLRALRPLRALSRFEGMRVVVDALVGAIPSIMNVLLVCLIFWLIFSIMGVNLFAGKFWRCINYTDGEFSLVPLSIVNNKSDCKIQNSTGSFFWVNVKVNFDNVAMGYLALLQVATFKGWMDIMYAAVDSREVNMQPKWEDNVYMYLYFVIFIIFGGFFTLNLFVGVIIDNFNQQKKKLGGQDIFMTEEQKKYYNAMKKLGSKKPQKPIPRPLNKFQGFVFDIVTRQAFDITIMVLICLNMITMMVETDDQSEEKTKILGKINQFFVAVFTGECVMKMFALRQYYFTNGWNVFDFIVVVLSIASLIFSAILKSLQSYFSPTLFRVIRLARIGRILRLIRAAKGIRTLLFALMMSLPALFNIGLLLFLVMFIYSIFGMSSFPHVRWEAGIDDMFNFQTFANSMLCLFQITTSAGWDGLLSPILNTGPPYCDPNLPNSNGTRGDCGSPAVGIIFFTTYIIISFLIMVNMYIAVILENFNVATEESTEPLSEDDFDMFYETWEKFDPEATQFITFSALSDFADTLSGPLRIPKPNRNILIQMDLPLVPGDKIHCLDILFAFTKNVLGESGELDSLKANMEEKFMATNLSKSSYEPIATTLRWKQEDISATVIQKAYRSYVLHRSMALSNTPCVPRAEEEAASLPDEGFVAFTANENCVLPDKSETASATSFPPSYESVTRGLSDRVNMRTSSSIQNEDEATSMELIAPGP

Compound | IC50
O=C1NC[C@@H](C(=O)NC(c2ccc(F)c(Cl)c2)C2C3CN(CC(F)(F)F)CC32)N1 (single isomer, unassigned) [Example 77B, (4S)-N-((1(R or S))-(3-chloro-4-fluorophenyl)(3-(2,2,2-trifluoroethyl)-3-azabicyclo[3.1.0]hexan-6-yl)methyl)-2-oxoimidazolidine-4-carboxamide] | 267 nM
CN1CCC(C(NC(=O)[C@@H]2CNC(=O)N2)c2ccc(F)c(Cl)c2F)CC1C(F)(F)F (single isomer, unassigned) [Example 78A, (S)-N-((R or S)-(3-chloro-2,4-difluoro-phenyl)((cis or trans)-1-methyl-2-(trifluoro-methyl)piperidin-4-yl)methyl)-2-oxoimidazolidine-4-carboxamide] | 4070 nM
CN1CCC(C(NC(=O)[C@@H]2CNC(=O)N2)c2ccc(F)c(Cl)c2F)CC1C(F)(F)F (single isomer, unassigned) [Example 78B, (S)-N-((R or S)-(3-chloro-2,4-difluoro-phenyl)((cis or trans)-1-methyl-2-(trifluoro-methyl)piperidin-4-yl)methyl)-2-oxoimidazolidine-4-carboxamide] | 9500 nM
CN1CCC(C(NC(=O)[C@@H]2CNC(=O)N2)c2ccc(F)c(Cl)c2F)CC1C(F)(F)F (single isomer, unassigned) [Example 78C, (S)-N-((R or S)-(3-chloro-2,4-difluoro-phenyl)((cis or trans)-1-methyl-2-(trifluoro-methyl)piperidin-4-yl)methyl)-2-oxoimidazolidine-4-carboxamide] | 8630 nM
CN1CCC(C(NC(=O)[C@@H]2CNC(=O)N2)c2ccc(F)c(Cl)c2F)CC1C(F)(F)F (single isomer, unassigned) [Example 78D, (S)-N-((R or S)-(3-chloro-2,4-difluoro-phenyl)((cis or trans)-1-methyl-2-(trifluoro-methyl)piperidin-4-yl)methyl)-2-oxoimidazolidine-4-carboxamide] | 4660 nM
CN1CCC(C(NC(=O)[C@@H]2CNC(=O)N2)c2ccc(F)c(Cl)c2F)CC1C(F)(F)F (single isomer, unassigned) [Example 78E, (S)-N-((R or S)-(3-chloro-2,4-difluoro-phenyl)((cis or trans)-1-methyl-2-(trifluoro-methyl)piperidin-4-yl)methyl)-2-oxoimidazolidine-4-carboxamide] | 24 nM
O=C1NC[C@@H](C(=O)NC(c2ccc(F)c(Cl)c2F)C2COC(C(F)(F)F)C2)N1 (single isomer, unassigned) [Example 79A, (S)-N-((R or S)-(3-chloro-2,4-difluoro-phenyl)((cis or trans)-5-(trifluoro-methyl)-tetrahydrofuran-3-yl)methyl)-2-oxoimidazolidine-4-carboxamide] | 39 nM
O=C1NC[C@@H](C(=O)NC(c2ccc(F)c(Cl)c2F)C2COC(C(F)(F)F)C2)N1 (single isomer, unassigned) [Example 79B, (S)-N-((R or S)-(3-chloro-2,4-difluoro-phenyl)((cis or trans)-5-(trifluoromethyl)tetrahydrofuran-3-yl)methyl)-2-oxoimidazolidine-4-carboxamide] | 190 nM
O=C1NC[C@@H](C(=O)NC(c2ccc(F)c(Cl)c2F)C2COC(C(F)(F)F)C2)N1 (single isomer, unassigned) [Example 79C, (S)-N-((R or S)-(3-chloro-2,4-difluoro-phenyl)((cis or trans)-5-(trifluoromethyl)tetrahydrofuran-3-yl)methyl)-2-oxoimidazolidine-4-carboxamide] | 886 nM
O=C1NC[C@@H](C(=O)NC(c2ccc(F)c(Cl)c2F)C2COC(C(F)(F)F)C2)N1 (single isomer, unassigned) [Example 79D, (S)-N-((R or S)-(3-chloro-2,4-difluoro-phenyl)((cis or trans)-5-(trifluoromethyl)tetrahydrofuran-3-yl)methyl)-2-oxoimidazolidine-4-carboxamide] | 3680 nM
O=C1NC[C@@H](C(=O)NC(c2ccc(F)c(Cl)c2F)C2COC(C(F)(F)F)C2)N1 (single isomer, unassigned) [Example 79E, (S)-N-((R or S)-(3-chloro-2,4-difluoro-phenyl)((cis or trans)-5-(trifluoromethyl)tetrahydrofuran-3-yl)methyl)-2-oxoimidazolidine-4-carboxamide] | 49 nM
O=C1NC[C@@H](C(=O)NC(c2ccc(F)c(Cl)c2F)C2COC(C(F)(F)F)C2)N1 (single isomer, unassigned) [Example 79F, (S)-N-((R or S)-(3-chloro-2,4-difluoro-phenyl)((cis or trans)-5-(trifluoromethyl)tetrahydrofuran-3-yl)methyl)-2-oxoimidazolidine-4-carboxamide] | 520 nM
O=C1NC[C@@H](C(=O)NC(c2ccc(F)c(Cl)c2F)C2COC(C(F)(F)F)C2)N1 (single isomer, unassigned) [Example 79G, (S)-N-((R or S)-(3-chloro-2,4-difluoro-phenyl)((cis or trans)-5-(trifluoromethyl)tetrahydrofuran-3-yl)methyl)-2-oxoimidazolidine-4-carboxamide] | 2330 nM
O=C1NC[C@@H](C(=O)NC(c2ccc(F)c(Cl)c2F)C2COC(C(F)(F)F)C2)N1 (single isomer, unassigned) [Example 79H, (S)-N-((R or S)-(3-chloro-2,4-difluoro-phenyl)((cis or trans)-5-(trifluoromethyl)tetrahydrofuran-3-yl)methyl)-2-oxoimidazolidine-4-carboxamide] | 3860 nM
Cc1nc2ccc(C(NC(=O)[C@@H]3CNC(=O)N3)c3ccc(Cl)cc3)cc2o1 (single isomer, unassigned) [Example 83A, (S)-N-((R or S)-(4-chlorophenyl)(2-methylbenzo[d]oxazol-6-yl)methyl)-2-oxoimidazolidine-4-carboxamide] | 147 nM
Cc1nc2ccc(C(NC(=O)[C@@H]3CNC(=O)N3)c3ccc(Cl)cc3)cc2o1 (single isomer, unassigned) [Example 83B, (S)-N-((R or S)-(4-chlorophenyl)(2-methylbenzo[d]oxazol-6-yl)methyl)-2-oxoimidazolidine-4-carboxamide] | 201 nM
O=C1NC[C@@H](C(=O)NC(c2ccc(F)c(Cl)c2)c2nc3ccccc3s2)N1 (single isomer, unassigned) [Example 87, (S)-N-((R or S)-benzo[d]thiazol-2-yl(3-chloro-4-fluoro-phenyl)methyl)-2-oxoimidazolidine-4-carboxamide] | 2.9 nM
O=C1NC[C@@H](C(=O)NC(c2ccc(F)c(Cl)c2)c2nc3ccccc3o2)N1 (single isomer, unassigned) [Example 88, (S)-N-((R or S)-benzo[d]oxazol-2-yl(3-chloro-4-fluoro-phenyl)methyl)-2-oxoimidazolidine-4-carboxamide] | 8.6 nM
O=C1NC[C@@H](C(=O)NC(c2ccc(OC(F)(F)F)cc2)c2ccc3c(c2)C(F)(F)C3)N1 (single isomer, unassigned) [Example 89, (S)—N—((R or S)-(8,8-difluorobicyclo[4.2.0]octa-1(6),2,4-trien-3-yl)(4-(trifluoromethoxy)phenyl)methyl)-2-oxoimidazolidine-4-carboxamide] | 4.9 nM
O=C1NC[C@@H](C(=O)NC(c2ccc(Cl)cc2)c2ccc3c(c2)CC3(F)F)N1 (single isomer, unassigned) [Example 90, (S)-N-((R or S)-(4-chlorophenyl)(7,7-difluorobicyclo[4.2.0]octa-1(6),2,4-trien-3-yl)methyl)-2-oxoimidazolidine-4-carboxamide] | 3.8 nM

Second part, the molecule after the results:

IC50 | Compound
100 nM | O=C1NC[C@@H](C(=O)NC(c2ccc(Cl)cc2)c2ccn3nccc3c2)N1 (single isomer, unassigned) [Example 80A, (S)—N—((R or S)-(4-chlorophenyl)(pyrazolo[1,5-a]pyridin-5-yl)methyl)-2-oxoimidazolidine-4-carboxamide]
107 nM | O=C1NC[C@@H](C(=O)NC(c2ccc(Cl)cc2)c2ccn3nccc3c2)N1 (single isomer, unassigned) [Example 80B, (S)-N-((R or S)-(4-chlorophenyl) (pyrazolo[1,5-a]pyridin-5-yl)methyl)-2-oxoimidazolidine-4-carboxamide]
255 nM | O=C1NC[C@@H](C(=O)NC(c2ccc(Cl)cc2)c2ccc3cn[nH]c3c2)N1 (single isomer, unassigned) [Example 82A, (S)-N-((R or S)-(4-chlorophenyl)(1H-indazol-6-yl)methyl)-2-oxoimidazolidine-4-carboxamide]
93 nM | O=C1NC[C@@H](C(=O)NC(c2ccc(Cl)cc2)c2ccc3cn[nH]c3c2)N1 (single isomer, unassigned) [Example 82B, (S)-N-((R or S)-(4-chlorophenyl)(1H-indazol-6-yl)methyl)-2-oxoimidazolidine-4-carboxamide]
372 nM | CS(=O)(=O)c1ccc(C(NC(=O)[C@@H]2CNC(=O)N2)c2ccc(F)c(Cl)c2)cc1 (single isomer, unassigned) [Example 85A, (S)-N-((R or S)-(3-chloro-4-fluorophenyl)(4-(methylsulfonyl)phenyl)methyl)-2-oxoimidazolidine-4-carboxamide]
1280 nM | CS(=O)(=O)c1ccc(C(NC(=O)[C@@H]2CNC(=O)N2)c2ccc(F)c(Cl)c2)cc1 (single isomer, unassigned) [Example 85B, (S)-N-((R or S)-(3-chloro-4-fluorophenyl)(4-(methylsulfonyl)phenyl)methyl)-2-oxoimidazolidine-4-carboxamide]
289 nM | CC1(C)CC(C(NC(=O)[C@@H]2CNC(=O)N2)c2ccc(Cl)cc2)CCN1CC(F)(F)F (single isomer, unassigned) [Example 91A, (4S)—N—((R or S)(4-chlorophenyl)((R or S)2,2-dimethyl-1-(2,2,2-trifluoroethyl)piperidin-4-yl)methyl)-2-oxoimidazolidine-4-carboxamide]
